Data on 1 compound can be found in paper PMC5152921, “Evolutionary and Functional Diversification of the Vitamin D Receptor-Lithocholic Acid Partnership” (PLoS ONE, 2016).

Holding throughout (experiment): Competitive ligand binding assay ([3H]-1,25D3 displacement)
Common to all, as to settings: lysate with VDR and human RXRWT; 4 nM [3H]-1,25D3; 18 hours at 4°C; Cheng-Prusoff; mean ± SEM

Assay [1] concerns the target T1, Zebrafish VDRα (Danio rerio, UniProt Q9PTN2).
T1 construct: 89.7 ng/well of full-length pSG5-VDR was co-transfected; expressed in transfected cells; host or cells: COS7
T1 sequence (Q9PTN2 1-453): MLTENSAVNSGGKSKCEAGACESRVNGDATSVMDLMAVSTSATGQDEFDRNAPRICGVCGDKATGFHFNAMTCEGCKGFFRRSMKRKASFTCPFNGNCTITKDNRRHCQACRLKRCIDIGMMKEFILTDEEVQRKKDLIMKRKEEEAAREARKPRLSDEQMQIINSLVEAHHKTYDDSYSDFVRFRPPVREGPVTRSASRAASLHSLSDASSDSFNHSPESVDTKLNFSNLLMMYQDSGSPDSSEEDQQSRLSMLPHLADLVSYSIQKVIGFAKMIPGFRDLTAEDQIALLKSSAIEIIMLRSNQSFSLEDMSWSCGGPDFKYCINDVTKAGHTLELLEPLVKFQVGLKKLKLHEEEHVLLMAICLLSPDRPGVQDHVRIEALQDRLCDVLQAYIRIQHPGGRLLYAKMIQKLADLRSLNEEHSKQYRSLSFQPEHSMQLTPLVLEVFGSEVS
T1 sequence (P19793 1-462 partner): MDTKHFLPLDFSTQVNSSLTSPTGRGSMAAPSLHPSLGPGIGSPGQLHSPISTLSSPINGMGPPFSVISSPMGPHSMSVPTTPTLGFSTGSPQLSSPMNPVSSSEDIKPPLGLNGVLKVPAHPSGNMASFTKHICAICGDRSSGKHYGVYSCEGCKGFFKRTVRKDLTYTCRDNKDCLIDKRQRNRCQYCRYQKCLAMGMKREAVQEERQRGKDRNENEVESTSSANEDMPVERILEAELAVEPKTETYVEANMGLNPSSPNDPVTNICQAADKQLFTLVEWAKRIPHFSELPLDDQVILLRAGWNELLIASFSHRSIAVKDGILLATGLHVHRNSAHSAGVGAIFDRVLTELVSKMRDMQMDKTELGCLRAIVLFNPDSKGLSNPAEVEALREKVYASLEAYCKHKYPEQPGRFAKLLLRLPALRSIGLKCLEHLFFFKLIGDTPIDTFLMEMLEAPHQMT
As for the experimental part:
(§1) Recombinant VDR and human RXRWT lysates were prepared from transfected COS7 cells (American Type Culture Collection #CRL-1651) as described in detail previously. Lysates were diluted 10-fold in ice-cold assay buffer (10 mM Tris HCl, 150 mM KCl, 1 mM EDTA, 0.3 mM ZnCl2, 5 mM DTT, and 1x protease inhibitor cocktail (100 μM AEBSF, 80 nM aprotinin, 5 μM bestatin, 1.5 μM E-64 (for cysteine proteases), 2 μM leupeptin, 1 μM pepstatin A), pH 7.5). […] Reactions were shaken to mix and incubated for 18 hours at 4°C. Bound and free ligand were separated with the addition of 80 μL of ice-cold separation buffer (2.5% (w/v) activated charcoal, 0.5% (w/v) dextran, 100 mM Na2HPO4, 39 mM NaH2PO4, 150 mM NaCl, 15 mM NaN3, 10% gelatin, pH 7.0), and incubated at 4°C for 15 minutes with shaking every 5 minutes. Reactions were centrifuged at 5,000 x g for 5 minutes at 4°C, and 200 μL of the supernatant containing the VDR-bound ligands was removed for scintillation counting.
(§2) Total binding was determined using lysate from cells transfected with VDR, and nonspecific binding was determined using lysate from cells transfected with the empty pSG5 vector. Specific binding was determined by subtracting non-specific binding counts from the total binding counts.

Assay [2] addresses T2, Medaka VDRβ (Oryzias latipes, UniProt B2CCA1).
T2 sequence (B2CCA1 1-425): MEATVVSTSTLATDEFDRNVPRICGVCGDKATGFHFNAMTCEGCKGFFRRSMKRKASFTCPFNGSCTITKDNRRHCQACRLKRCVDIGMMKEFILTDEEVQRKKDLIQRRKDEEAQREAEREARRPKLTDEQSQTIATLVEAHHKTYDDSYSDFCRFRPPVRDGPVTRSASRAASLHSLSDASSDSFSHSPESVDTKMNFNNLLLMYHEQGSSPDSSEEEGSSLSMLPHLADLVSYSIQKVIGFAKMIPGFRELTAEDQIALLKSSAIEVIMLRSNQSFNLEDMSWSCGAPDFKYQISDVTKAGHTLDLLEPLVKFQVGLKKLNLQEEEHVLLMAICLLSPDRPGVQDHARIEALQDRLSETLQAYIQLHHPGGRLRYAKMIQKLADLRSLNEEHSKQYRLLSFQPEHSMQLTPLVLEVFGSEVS
T2 sequence (P19793 1-462 partner): T1 sequence (P19793 1-462 partner)
As for the experimental part: as §1, §2

Assay [3] concerns the target T3, Lamprey VDR (Petromyzon marinus, UniProt Q7ZZY9).
T3 sequence (Q7ZZY9 1-406): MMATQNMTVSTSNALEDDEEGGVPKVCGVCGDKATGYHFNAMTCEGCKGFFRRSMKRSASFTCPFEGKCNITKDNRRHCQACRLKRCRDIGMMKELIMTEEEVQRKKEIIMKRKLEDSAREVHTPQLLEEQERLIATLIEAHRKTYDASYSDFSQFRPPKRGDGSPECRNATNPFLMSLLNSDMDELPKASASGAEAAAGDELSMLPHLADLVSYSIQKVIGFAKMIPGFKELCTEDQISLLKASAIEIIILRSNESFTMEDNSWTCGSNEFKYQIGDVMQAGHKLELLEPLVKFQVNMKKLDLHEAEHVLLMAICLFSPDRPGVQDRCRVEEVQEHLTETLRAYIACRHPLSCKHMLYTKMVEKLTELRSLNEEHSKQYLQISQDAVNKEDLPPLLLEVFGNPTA
T3 sequence (P19793 1-462 partner): T1 sequence (P19793 1-462 partner)
As for the experimental part:
as §1, §2

Assay [4] deals with T4, Bichir VDR (Polypterus senegalus, UniProt A0A088GJ14).
T4 sequence (A0A088GJ14 1-421): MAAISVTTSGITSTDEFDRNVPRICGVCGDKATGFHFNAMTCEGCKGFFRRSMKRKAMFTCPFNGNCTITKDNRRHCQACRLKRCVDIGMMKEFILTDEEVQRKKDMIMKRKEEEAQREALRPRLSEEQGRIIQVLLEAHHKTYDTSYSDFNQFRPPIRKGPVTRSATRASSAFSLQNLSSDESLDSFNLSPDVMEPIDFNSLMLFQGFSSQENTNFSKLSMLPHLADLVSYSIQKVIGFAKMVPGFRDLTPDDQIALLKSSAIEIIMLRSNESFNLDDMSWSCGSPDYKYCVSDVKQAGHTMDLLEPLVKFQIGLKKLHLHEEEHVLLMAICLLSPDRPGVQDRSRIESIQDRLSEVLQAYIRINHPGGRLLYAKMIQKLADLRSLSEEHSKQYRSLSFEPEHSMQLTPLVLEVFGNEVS
T4 sequence (P19793 1-462 partner): T1 sequence (P19793 1-462 partner)
As for the experimental part:
as §1, §2

Assay [5] concerns the target Medaka VDRα (Oryzias latipes, UniProt B2CCA0). As for the experimental part: as §1, §2

Sequence of Medaka VDRα (B2CCA0 entry or part of it, one chain of several): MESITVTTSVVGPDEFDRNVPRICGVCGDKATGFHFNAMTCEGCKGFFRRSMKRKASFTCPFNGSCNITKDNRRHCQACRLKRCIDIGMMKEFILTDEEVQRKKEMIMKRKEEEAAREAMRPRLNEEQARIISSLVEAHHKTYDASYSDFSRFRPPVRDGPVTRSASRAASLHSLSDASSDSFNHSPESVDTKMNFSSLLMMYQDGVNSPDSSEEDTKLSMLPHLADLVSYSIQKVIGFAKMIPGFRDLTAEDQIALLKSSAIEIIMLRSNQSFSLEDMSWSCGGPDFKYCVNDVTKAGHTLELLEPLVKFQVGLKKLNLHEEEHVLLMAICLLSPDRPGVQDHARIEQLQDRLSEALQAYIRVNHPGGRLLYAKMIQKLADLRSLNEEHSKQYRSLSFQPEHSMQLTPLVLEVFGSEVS

Turning to `C[C@H](CCC(=O)O)[C@H]1CC[C@H]2[C@@H]3CC[C@@H]4C[C@H](O)CC[C@]4(C)[C@H]3CC[C@]12C` [LCA, 5β-cholanic acid-3α-ol], the Ki (as a rule, a measure of affinity in units of concentration, obtained from inhibition or displacement) in assay [1] came out at 5.5 ± 1.9 µM; in assay [2], 7.6 ± 1.1 µM; in assay [3], 8.7 µM; in assay [4], 4.2 ± 0.4 µM; in assay [5], 6.5 ± 1.9 µM.
